This is an account of results in patent publication US20240336934A1, “CRISPR/CAS9-BASED COMPOSITIONS AND METHODS FOR TREATING RETINAL DEGENERATIONS” (The Johns Hopkins University, priority 2016, published 2024).

The test system of series [1] is primary RGCs. As to the kind of experiment: Primary RGC survival (CellTiter-Glo) after immunopanning / colchicine. Type of series: cell-based, mouse. The following applies: combined knockdown of both DLK and LZK. In general terms: In ATP-based viability assays light output follows the ATP content of the culture.
From the text: For this screen, a high-throughput method was developed for knocking down gene expression in primary RGCs, from male and female C57Bl/6 mice (7), with small interfering RNA oligonucleotides (siRNAs) and coupled it with a quantitative assay of RGC survival (CellTiter-Glo, Promega) (5).
In order to identify these other targets, the kinome screen was modified to include Dlk siRNA in every well and sensitize it to those library siRNAs that synergized with DLK knockdown to further increase RGC survival (FIG. 19A). The other modification was to allow 48 hours for extant protein turnover, before exacerbating the immunopanning injury with colchicine, a microtubule destabilizer that has been used to model axon injury in vitro and in vivo (15, 16).
For the next series, the system named is hESC-derived RGCs. As to the kind of experiment: Survival of hESC-derived RGCs after colchicine challenge. Type of series: cell-based, human. The following applies: two days after colchicine (1 μM); tozasertib (1 μM), Genentech inhibitor 123 (0.1 μM). As for the experimental part:
FIG. 69A depicts survival (±SD) of hESC-derived RGCs two days after a challenge with vehicle or colchicine (1 μM) in the presence of the DLK/LZK inhibitors tozasertib (1 μM), Genentech inhibitor 123 (0.1 μM) or a vehicle control. FIG. 69B depicts survival (±SD) of hESC-derived RGCs two days after a challenge with colchicine (1 μM) in the presence of increasing doses of sunitinib.

The subject of series [2] is primary RGCs. The following applies: compared with DLK knockdown or knockout alone; cited from earlier work.
In another series the test system is RGCs. The conditions noted are these: rat optic nerve transection and glaucoma models; cited from earlier work.
In series [3] the target is T1, DLK (Homo sapiens, UniProt Q12852).
T1 sequence (Q12852 1-859): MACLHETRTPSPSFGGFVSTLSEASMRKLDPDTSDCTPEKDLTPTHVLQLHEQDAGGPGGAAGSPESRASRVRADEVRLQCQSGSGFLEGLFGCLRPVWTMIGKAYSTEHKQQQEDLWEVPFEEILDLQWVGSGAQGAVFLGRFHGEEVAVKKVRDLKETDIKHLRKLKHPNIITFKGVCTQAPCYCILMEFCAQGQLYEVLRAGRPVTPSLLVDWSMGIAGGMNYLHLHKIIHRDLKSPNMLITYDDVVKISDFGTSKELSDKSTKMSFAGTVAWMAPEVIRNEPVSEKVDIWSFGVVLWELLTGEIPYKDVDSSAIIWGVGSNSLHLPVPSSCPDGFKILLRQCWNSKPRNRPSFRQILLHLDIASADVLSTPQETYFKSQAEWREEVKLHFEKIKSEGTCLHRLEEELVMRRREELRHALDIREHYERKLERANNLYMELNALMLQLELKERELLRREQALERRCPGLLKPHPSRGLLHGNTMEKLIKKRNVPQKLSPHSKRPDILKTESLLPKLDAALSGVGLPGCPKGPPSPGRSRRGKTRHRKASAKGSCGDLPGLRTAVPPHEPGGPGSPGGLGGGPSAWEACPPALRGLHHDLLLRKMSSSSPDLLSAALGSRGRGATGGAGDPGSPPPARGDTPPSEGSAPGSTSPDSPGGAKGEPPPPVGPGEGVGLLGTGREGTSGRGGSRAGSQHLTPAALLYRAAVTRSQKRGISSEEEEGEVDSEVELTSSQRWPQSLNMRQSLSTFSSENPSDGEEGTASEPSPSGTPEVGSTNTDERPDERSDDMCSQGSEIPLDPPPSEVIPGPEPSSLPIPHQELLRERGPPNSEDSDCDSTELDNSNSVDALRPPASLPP
The conditions noted are these: published kinase inhibitor profiling data; cited from earlier work.

The target of the next series is T2, LZK (Homo sapiens, UniProt O43283).
T2 sequence (O43283 1-966): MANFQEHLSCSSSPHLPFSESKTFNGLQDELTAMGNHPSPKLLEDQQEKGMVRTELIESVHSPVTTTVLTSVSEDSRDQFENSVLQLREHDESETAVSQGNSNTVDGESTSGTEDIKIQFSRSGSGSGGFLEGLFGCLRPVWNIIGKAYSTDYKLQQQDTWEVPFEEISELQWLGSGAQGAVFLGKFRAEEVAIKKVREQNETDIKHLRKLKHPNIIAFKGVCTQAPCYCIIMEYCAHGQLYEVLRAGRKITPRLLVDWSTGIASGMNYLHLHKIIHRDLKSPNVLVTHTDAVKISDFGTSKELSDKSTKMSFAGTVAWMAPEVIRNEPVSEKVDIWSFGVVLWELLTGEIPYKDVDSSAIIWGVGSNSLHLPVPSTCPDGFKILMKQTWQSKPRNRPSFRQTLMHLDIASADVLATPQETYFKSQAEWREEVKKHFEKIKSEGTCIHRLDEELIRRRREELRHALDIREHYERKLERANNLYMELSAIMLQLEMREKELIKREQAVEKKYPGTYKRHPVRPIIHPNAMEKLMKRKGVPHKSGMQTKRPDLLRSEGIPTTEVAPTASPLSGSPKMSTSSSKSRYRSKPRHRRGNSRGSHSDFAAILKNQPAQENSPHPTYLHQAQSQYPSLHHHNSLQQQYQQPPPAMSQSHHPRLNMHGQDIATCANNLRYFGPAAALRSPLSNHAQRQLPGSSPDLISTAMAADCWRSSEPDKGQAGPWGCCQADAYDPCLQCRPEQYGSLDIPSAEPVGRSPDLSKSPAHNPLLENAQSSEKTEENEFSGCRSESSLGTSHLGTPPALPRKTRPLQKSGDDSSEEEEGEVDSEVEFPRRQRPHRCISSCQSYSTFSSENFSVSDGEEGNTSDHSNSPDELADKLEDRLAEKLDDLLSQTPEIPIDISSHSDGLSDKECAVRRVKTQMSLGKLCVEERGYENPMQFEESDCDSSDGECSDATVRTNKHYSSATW
The following applies: published kinase inhibitor profiling data; cited from earlier work.

For series [4], the system named is Dlk. As to the kind of experiment: scAAV/lentivirus transduction of RGCs from Cas9 mouse; BglII assay for Dlk gene editing. The following applies: gRNA delivered by ssAAV, Cas9 present from the mouse. Type of series: cell-based.
From the text: Cells were harvested from the Cas9 mouse, and transduced in vitro. […] The construct was packaged to produce a self-complementary AAV (scAAV). […] Cells were harvested from the Cas9 mouse, and transduced in vitro. […] The gRNA (mm079) was delivered by ssAAV and Cas9 was present from the mouse
Titration of scAAV virus transducing either WT RGC or RGCs derived from the Cas9 mouse. […] In this assay, we are assaying for cutting by loss of a restriction enzyme site. […] A construct was generated using the H1 promoter to express a gRNA (shown in black) and mCherry simultaneously. […] The construct was packaged to produce a self-complementary AAV (scAAV).
To test this system, an AAV construct was generated that used the H1 promoter to express an mCherry-histone 2B fusion in the Pol II direction and the Dlk #4 gRNA (5′[sequence] 3′ (SEQ ID NO: 163)), which conveniently targets a BglII site (FIGS. 19G and 1H), in the Pol III direction (Dlk gRNA:H1:H2B-mCherry). […]
For restriction analysis, genomic DNA was extracted by resuspending cells in QuickExtract solution (Epicentre, Madison, WI), incubating at 65° C. for 20 min, and then at 98° C. for 20 min. The extract solution was used directly or cleaned using DNA Clean and Concentrator (Zymo Research, Irvine, CA), and quantitated by NanoDrop (Thermo 30 Fisher Scientific).

Turning to `Cc1cc(Nc2cc(N3CCN(C)CC3)nc(Sc3ccc(NC(=O)C4CC4)cc3)n2)[nH]n1` [tozasertib], the “RGC survival on addition of drug to combined knockdown of DLK and LZK” value in the series with primary RGCs [1] is given as “had no effect”. In the series on hESC-derived RGCs, the “survival of hESC-derived RGCs” value is listed as “promotes the survival of human ESC-derived RGCs”. For the same molecule, in the series with primary RGCs [2], the “RGC survival in vitro” value was “consistently improved RGC survival in vitro more than DLK knockdown or knockout alone”. For the same molecule, the “protection of RGCs” value in the series with RGCs is “protected RGCs in both the rat optic nerve transection and glaucoma models”. The “inhibitor of DLK” value at DLK [3] was “identified as an inhibitor of DLK”. Also, at LZK, the “inhibition of LZK” value is “does inhibit LZK”.

As for “GAAGAAGGTTCGAGATCTCAAGG (chemistry not given here) [mm079]”, the “targeting as detected by a BglII assay” value with Dlk [4] is about 100%.
